“Also recorded” adds a separate entry of the source.
How the values were obtained:
[1] = tested on: Dypilidium caninum; assay: Treatment of Dypilidium caninum in dogs (natural infection); format: in vivo; settings: 100 mg/kg, tablets containing 0.5 gram, necropsy 21 days after treatment
Excerpt: In general, the testing procedure was substantially the same as in Example 1 except necropsy 21 days after treatment. The treatment was 100% effective.

[2] = Necropsy observations in treated lambs; format: in vivo; settings: 48 hours after treatment
Procedure: (§1) Seven lambs (Group 1, black) were given a single 100 mg/kg of body weight dose of the test material dissolved in a mixture of water and gum syrup (0.5 ml/kg of body weight) orally administered with a syringe.
(§2) Seven lambs (Group 2, red) were given a single 50 mg/kg of body weight dose of the test material dissolved in a mixture of water and gum syrup (0.5 ml/kg of body weight) orally administered with a syringe.
(§3) 48 hours after treatment, necroscopies were performed.

[3] = tested on: Moniezia spp.; assay: Treatment of Moniezia expansa in lambs (natural infestation); format: in vivo
Procedure: (§4) Twenty lambs spontaneously infested by nematodes and cestodes were removed from a flock near Limoges (Haute-Vienne), France. They were housed in sheepfold --concentrate food, 1 kg per day per lamb, water and hay, ad libitum, were provided.
(§5) The animals were assigned to treatment groups as indicated below:
as §1, §2
(§6) Six lambs (Group 3, blue) were given 0.5 ml/kg of body weight of a mixture of water and gum syrup orally administered with a syringe.
as §3
(§7) Scolices and gastro intestinal worm counts were carried out.

[4] = Toxicity study in cats, single doses; format: in vivo
Excerpt: (§8) Additional toxicity studies have been carried out in cats and dogs, which can be summarized as follows.
The lethal dose of the test material in cats is greater than 10 g/kg.

[5] = tested on: Echinococus granulosus; assay: Treatment of Echinococus granulosus in dogs (experimental infection); format: in vivo; settings: 200 mg/kg, 0.5 gram tablets, treated 4 or 6 weeks after infection, necropsy 4 days after treatment
Procedure: Again, the general testing procedure was that of Example 1. This time 16 dogs to be treated were experimentally infected and divided into two groups along with 4 infected control dogs in each group. The 8 dogs of Group 1 were treated 4 weeks after infection, and the 8 dogs of Group 2 were treated 6 weeks after infection, each at a dose of 200 mg/kg, using the 0.5 gram active ingredient tablets. 100% efficacy of the single dose treatment was found upon necropsy 4 days after treatment.

[6] = tested on: whipworms; assay: Treatment of nematodes in dogs: whipworms; format: in vivo; settings: 100 mg/kg single dose, tablets containing 0.5 g, 3 dogs, necropsy 4 days after treatment
Excerpt: (§9) The general testing procedure was that of Example 1. […] 100% efficacy against whipworms and 65% efficacy against hookworms were found upon necropsy 4 days after treatment using a single dose treatment.

[7] = tested on: Gastro-Intestinal Nematodes; assay: Gastro-intestinal nematodes in lambs, worm counts; format: in vivo
Procedure: as §4
To confirm the infestation, faeces were taken from the rectum 48 hours prior to treatment and the number of eggs counted.
as §5, §1, §2, §6, §3, §7

[8] = tested on: Taenia pisiformis; assay: Treatment of Taenia pisiformis in dogs (experimental infection, single oral dose); format: in vivo, dogs (beagles)
Procedure: Fifteen beagles (8 male and 7 female), ranging in age from 8 to 30 months, were individually housed in stainless-steel cages and fed with commercial dog food. Water was provided ad libitum. After 2 weeks acclimatization, each dog was exposed to infection by administering orally 14-20 cysts containing Taenia pisiformis strobilocerci obtained 24 hours before from wild rabbits. Vitality of the cysts was verified by evagination in bile of the dog.
Seven dogs (Group 1) were given the drug 6 weeks after infection with Taenia pisiformis, and the other 8 dogs (Group 2) were given the drug 8 weeks after infection.
(§10) Food and water intake, faecel consistency, vomiting, general appearance and behavior were recorded hourly during the day of treatment and twice daily thereafter.
The tapeworms that were found were then removed, counted and examined for scolices.
The emission time of the faeces for each dog was recorded during the day, when possible.
Nineteen days after treatment for Group 1, and 4 days after treatment for Group 2, the dogs were killed and the small intestines were examined in order to reveal the presence of Taenia spp. This 19-day waiting period for Group 1 allowed time for any viable scolices to redevelop, thus making them more easily visible at necropsy.
The intestines and intestinal contents from the pyloric portion of the stomach through the rectum were thoroughly examined for parasites.

[9] = tested on: hookworms; assay: Treatment of nematodes in dogs: hookworms; format: in vivo
Excerpt: as §9

[10] = Toxicity study in dogs, single doses; format: in vivo
Excerpt: as §8
The lethal dose of the test material in dogs is greater than 10 g/kg.

[11] = Side effects of treatment in Taenia pisiformis-infected dogs; format: in vivo, dogs (beagles); settings: 75 mg/kg, 15 dogs
Procedure: as §10

[12] = single dose 100 mg/kg, 7 naturally infested lambs

CC(=O)Oc1ccccc1C(=O)Nc1ncc([N+](=O)[O-])s1 [PH 5776, 2-(2'-acetoxy)-benzamido-5-nitro-thiazole]
Effectiveness of treatment [1]: 100%
Changes in the internal organs and coloration of the tissues ([2]; 100 or 50 mg/kg): No changes in the internal organs and no coloration of the tissues were observed
Coloration of small intestine wall tissues ([2]; treated groups (100 or 50 mg/kg)): slightly colored yellow
Efficacy against Moniezia spp. (in words) ([3]; 50 mg/kg): the efficacy is decreasing
Number of lambs negative after treatment ([3]; 50 mg/kg): 3 lambs
Number of lambs still infested with the cestoda ([3]; Group 2 (red), 50 mg/kg, 48 hours after treatment): 3 lambs
Activity against Moniezia spp. [3, 12]: ~100%
Activity against Moniezia spp. (in words) [3, 12]: very active
Lethal dose [4]: greater than 10 g/kg
Necropsy findings [4]: slight yellow discoloration of the renal cortex
Signs of intoxication (central nervous system) ([4]; doses of 5 and 10 g/kg): a suggestion of central nervous system depression
Signs of intoxication ([4]; single doses of 1 g/kg): Minimal signs (slight diarrhea) of intoxication
Route of excretion ([4]; suggested from necropsy findings): urine as a route of excretion
Efficacy of the single dose treatment [5]: 100%
Efficacy against whipworms [6]: 100%
After Treatment At Necroscopies: Number Of Worms, Large Intestine ([7]; Group 1, 100 mg/kg): 0
Effect on round worms / gastro-intestinal nematodes (in words) ([7]; lambs, 48 hours after treatment, 50 and 100 mg/kg): no toxic effect on any of the present round worms; also recorded: does not reveal any efficacy; also recorded: no activity
Effectiveness against Taenia pisiformis ([8]; 75 mg of body weight): effective
Tapeworm material in faeces after the 14th hour ([8]; 75 mg/kg): not found
Tapeworms at necropsy (in words) ([8]; 75 mg/kg, 15 dogs, day 19 (Group 1) and day 4 (Group 2)): tapeworms were not found in any of the 15 dogs; also recorded: None of the dogs on study were positive for tapeworms
Number of dogs showing tapeworm material in the faeces ([8]; Group 1 (7 dogs), 75 mg/kg): 5 dogs
Tapeworm Material In Faeces (8th-14th Hour) ([8]; Group 1, 75 mg/kg, 6 weeks after infection): yes and no
Number of dogs showing tapeworm material in the faeces ([8]; Group 2 (8 dogs), 75 mg/kg): 6 dogs
Tapeworm Material In Faeces (8th-14th Hour) ([8]; Group 2, 75 mg/kg, 8 weeks after infection): yes and no
Number of dogs showing tapeworm material in the faeces ([8]; Groups 1 and 2, out of 15 dogs, 75 mg/kg): 11 dogs
Efficacy against hookworms ([9]; 100 mg/kg single dose, tablets containing 0.5 g, 3 dogs, necropsy 4 days after treatment): 65%
Efficacy against hookworms ([9]; 3 repeated doses of 100 mg/kg at an interval of 7 days): 93%
Lethal dose [10]: greater than 10 g/kg
Signs of intoxication ([10]; single doses of 1, 5 or 10 g/kg): Minimal signs of intoxication related to gastro-intestinal distress
Undesirable side effects of the treatment [11]: not found in any of the 15 dogs
